What was measured:
MMP-2 = molecular target: T1, MMP-2 (Homo sapiens, UniProt P08253); assay: Enzyme inhibiting activity of MMPs (fluorogenic peptide substrate), MMP-2; assay type: biochemical; conditions: human MMP-2; substrate MOCAc-Pro-Leu-Gly-Leu-A2Pr(DNP)-Ala-Arg-NH2
T1 construct: purchased Calbiochem (EMD/MERCK Biosciences)
T1 sequence (P08253 110-660): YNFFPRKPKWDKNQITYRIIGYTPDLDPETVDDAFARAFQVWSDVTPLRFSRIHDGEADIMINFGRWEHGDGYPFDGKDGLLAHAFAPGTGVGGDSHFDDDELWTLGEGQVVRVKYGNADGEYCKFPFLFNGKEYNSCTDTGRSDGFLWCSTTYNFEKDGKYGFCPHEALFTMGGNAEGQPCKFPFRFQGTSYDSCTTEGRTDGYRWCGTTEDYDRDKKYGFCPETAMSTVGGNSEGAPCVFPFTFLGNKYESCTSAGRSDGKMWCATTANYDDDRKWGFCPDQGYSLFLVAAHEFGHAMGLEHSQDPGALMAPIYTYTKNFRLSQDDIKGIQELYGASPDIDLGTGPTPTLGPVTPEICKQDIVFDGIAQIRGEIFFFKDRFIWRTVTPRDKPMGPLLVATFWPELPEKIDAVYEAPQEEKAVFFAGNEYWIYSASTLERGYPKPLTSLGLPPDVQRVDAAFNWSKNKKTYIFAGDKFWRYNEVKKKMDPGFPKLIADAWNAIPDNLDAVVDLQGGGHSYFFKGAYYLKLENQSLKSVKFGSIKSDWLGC
Description: (§1) Various human MMPs (MMP-2, MMP-9 and MMP-13) were purchased from Calbiochem (EMD/MERCK Biosciences).
(§2) The enzyme activity of MMPs was measured according to the method described in C. Graham Knight, Frances Willenbrock and Gillian Murphy: A novel coumarin-labelled peptide for sensitive continuous assays of the matrix metalloproteinases: FEBS LETT., 296, (1992), 263-266. As a substrate, MOCAc-Pro-Leu-Gly-Leu-A2Pr(DNP)-Ala-Arg-NH2 (Peptide Institute, Inc. Osaka, Japan) was used, and the following four assays are performed per compound (inhibitor) for measuring the inhibiting activity.
(§3) (A) Substrate (synthetic substrate), enzyme (MMPs), inhibitor (B) Substrate (synthetic substrate), inhibitor (C) Substrate (synthetic substrate), enzyme (MMPs) (D) Substrate (synthetic substrate) In each assay, the fluorescent intensity was measured, and inhibition (%) was calculated by the following equation.
(§4) Inhibition(%)=[I−(A−B)/(C−D)]×100
(§5) IC50 indicates a concentration at which inhibition (%) is 50%.

MMP-9 = molecular target: T2, MMP-9 (Homo sapiens, UniProt P14780); assay: Enzyme inhibiting activity of MMPs (fluorogenic peptide substrate), MMP-9; assay type: biochemical; conditions: human MMP-9; substrate MOCAc-Pro-Leu-Gly-Leu-A2Pr(DNP)-Ala-Arg-NH2
T2 construct: purchased Calbiochem (EMD/MERCK Biosciences)
Description: as §1, §2, §3, §4, §5

MMP-13 = molecular target: T3, MMP-13 (Homo sapiens, UniProt P45452); assay: Enzyme inhibiting activity of MMPs (fluorogenic peptide substrate), MMP-13; assay type: biochemical; conditions: human MMP-13, proenzyme activated with APMA; substrate MOCAc-Pro-Leu-Gly-Leu-A2Pr(DNP)-Ala-Arg-NH2
T3 construct: purchased Calbiochem (EMD/MERCK Biosciences)
Description: as §1
Since the purchased MMP-13 was Proenzyme, the activated one was used, which was incubated at 37° C. for 2 hours after the successive addition of an assay buffer (containing 50 mM Tris-HCl (pH7.6), 0.3 M NaCl, 10 mM CaCl2, 0.005% Brij35) and APMA (final concentration 1 mM) to the enzyme solution.
as §2, §3, §4, §5

T2 sequence (P14780 94-707): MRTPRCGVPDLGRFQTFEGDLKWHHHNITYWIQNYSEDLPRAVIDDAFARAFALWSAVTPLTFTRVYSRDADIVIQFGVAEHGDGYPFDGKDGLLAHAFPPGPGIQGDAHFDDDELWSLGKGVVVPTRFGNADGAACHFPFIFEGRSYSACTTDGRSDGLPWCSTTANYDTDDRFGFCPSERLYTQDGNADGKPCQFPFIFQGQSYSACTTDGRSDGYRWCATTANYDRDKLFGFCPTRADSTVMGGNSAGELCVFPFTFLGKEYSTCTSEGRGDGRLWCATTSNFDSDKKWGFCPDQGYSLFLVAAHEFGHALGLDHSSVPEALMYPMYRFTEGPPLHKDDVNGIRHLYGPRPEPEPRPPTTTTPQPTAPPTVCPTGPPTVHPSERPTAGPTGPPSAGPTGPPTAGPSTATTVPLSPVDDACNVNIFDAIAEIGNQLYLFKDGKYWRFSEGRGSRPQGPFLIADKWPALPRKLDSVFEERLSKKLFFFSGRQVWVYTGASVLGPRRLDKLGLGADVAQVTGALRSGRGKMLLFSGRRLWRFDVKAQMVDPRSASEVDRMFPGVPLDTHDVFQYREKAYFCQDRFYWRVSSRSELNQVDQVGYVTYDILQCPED

Row | SMILES | melting point | IC50 (MMP-2) [µM] | IC50 (MMP-9) [µM] | IC50 (MMP-13) [µM]
1 | C[C@@H](NS(=O)(=O)N1CCN(c2ccc(OCc3ccc4ccccc4c3)cc2)CC1)C(=O)O [Compound I-2, (R)-2-{4-[4-(naphthalen-2-ylmethoxy)-phenyl]-piperazine-1-sulfonylamino}-propionic acid] | 167 to 171 °C |  |  | 
2 | COc1ccc2cc(C#Cc3ccc(C4CCN(S(=O)(=O)N[C@H](C)C(=O)O)CC4)cc3)ccc2c1 [Compound I-11, (R)-2-{4-[4-(6-methoxy-naphthalen-2-ylethynyl)-phenyl]-piperidine-1-sulfonylamino}-propionic acid] |  | > 10 | > 10 | 0.0549
3 | CCC[C@H](NS(=O)(=O)N1CCN(c2ccc(/C=C/c3ccc4ccccc4c3)cc2)CC1)C(=O)O [Compound I-13] |  | > 10 | > 10 | 0.0443
4 | CCC[C@H](NS(=O)(=O)N1CCC(c2ccc(CCc3ccc4cc(OC)ccc4c3)cc2)CC1)C(=O)O [Compound I-20, (S)-2-(4-{4-[2-(6-methoxy-naphthalen-2-yl)-ethyl]-phenyl}-piperidine-1-sulfonylamino]-pentanoic acid] |  | 1 to 10 | > 10 | 0.0945
5 | CCC[C@H](NS(=O)(=O)N1CCC(c2ccc(C=Cc3ccc4cc(OC)ccc4c3)cc2)CC1)C(=O)O [Compound I-24, (S)-2-(4-{4-[(A)-2-(6-methoxy-naphthalen-2-yl)-vinyl]-phenyl)-piperidine-1-sulfonylamino}-pentanoic acid] |  | > 10 | > 10 | 0.138
6 | CCOc1ccc2cc(C#Cc3ccc(N4CCN(S(=O)(=O)N[C@H](C)C(=O)O)CC4)cc3)ccc2c1 [Compound I-27, (R)-2-{4-[4-(6-ethoxy-naphthalen-2-ylethynyl)-phenyl]-piperazine-1-sulfonylamino)-propionic acid] |  | > 10 | > 10 | 0.0423
7 | CCC[C@H](NS(=O)(=O)N1CCN(c2ccc(/C=C/c3ccc4cc(OCOC)ccc4c3)cc2)CC1)C(=O)O [Compound I-49, (S)-2-(4-{4-[(E)-2-(6-methoxymethoxy-naphthalen-2-yl)-vinyl]-phenyl}-piperazine-1-sulfonylamino)-pentanoic acid] |  | 1 to 10 | > 10 | 0.0965
8 | COc1ccc2cc(C#Cc3ccc(N4CCN(S(=O)(=O)N[C@H](C)C(=O)O)C[C@@H]4C)cc3)ccc2c1 [Compound I-53] |  | 1 to 10 | > 10 | 0.107

Now from value to compound:

Row | melting point | IC50 (MMP-2) [µM] | IC50 (MMP-9) [µM] | IC50 (MMP-13) [µM] | SMILES
9 | 187 to 190 °C (dec.) | > 10 | > 10 | 0.121 | CCC[C@H](NS(=O)(=O)N1CCN(c2ccc(C#Cc3ccc4cc(OC)ccc4c3)cc2)CC1)C(=O)O [Compound I-1, (S)-2-{4-[4-(6-methoxy-naphthalen-2-ylethynyl)-phenyl]-piperazine-1-sulfonylamino}-pentanoic acid]
10 |  | > 10 | > 10 | 0.11 | COc1ccc2cc(C#Cc3ccc(N4CCN(S(=O)(=O)N[C@H](C(=O)O)C(C)C)CC4)cc3)ccc2c1 [Compound I-5, (S)-2-{4-[4-(6-methoxy-naphthalen-2-ylethynyl)-phenyl]-piperazine-1-sulfonylamino}-3-methyl-butanoic acid]
11 |  | 1 to 10 | > 10 | 0.126 | COc1ccc2cc(COc3ccc(N4CCN(S(=O)(=O)N[C@@H](C)C(=O)O)CC4)cc3)ccc2c1 [Compound I-15, (S)-2-{4-[4-(6-methoxy-naphthalen-2-ylmethoxy)-phenyl]-piperazine-1-sulfonylamino}-propionic acid]
12 |  | > 10 | > 10 | 0.142 | COc1ccc2cc(COc3ccc(C4CCN(S(=O)(=O)NC(C)C(=O)O)CC4)cc3)ccc2c1 (centres unmarked) [Compound I-19]
13 |  | > 10 | > 10 | 0.176 | COc1ccc2cc(/C=C/c3ccc(N4CCN(S(=O)(=O)N[C@@H](C)C(=O)O)CC4)cc3)ccc2c1 [Compound I-21, (S)-2-(4-{4-[(E)-2-(6-methoxy-naphthalen-2-yl)-vinyl]-phenyl}-piperazine-1-sulfonylamino}-propionic acid]
14 |  | > 10 | > 10 | 0.145 | CCC[C@H](NS(=O)(=O)N1CCC(c2ccc(/C=C/c3ccc4ccccc4c3)cc2)CC1)C(=O)O [Compound I-25]
15 |  | > 10 | > 10 | 0.0771 | CCC[C@H](NS(=O)(=O)N1CCN(c2ccc(C#Cc3ccc4cc(OCC)ccc4c3)cc2)CC1)C(=O)O [Compound I-28, (S)-2-{4-[4-(6-ethoxy-naphthalen-2-ylethynyl)-phenyl]-piperazine-1-sulfonylamino)-pentanoic acid]
16 |  | 1 to 10 | > 10 | 0.0685 | C[C@@H](NS(=O)(=O)N1CCN(c2ccc(C#Cc3ccc4cc(OCC5CC5)ccc4c3)cc2)CC1)C(=O)O [Compound I-32, (R)-2-{4-[4-(6-cyclopropylmethoxy-naphthalen-2-ylethynyl)-phenyl]-piperazine-1-sulfonylamino)-propionic acid]
17 |  | 1 to 10 | > 10 | 0.186 | COc1ccc2cc(CNc3ccc(N4CCN(S(=O)(=O)N[C@H](C)C(=O)O)CC4)cc3)ccc2c1 [Compound I-45, (R)-2-(4-{4-[4-(6-methoxy-naphthalen-2-ylmethyl)-amino]-phenyl}-piperazine-1-sulfonylamino)-propionic acid]
18 |  | > 10 | > 10 | 0.131 | COc1ccc2cc(C#Cc3ccc(N4CCN(S(=O)(=O)N[C@H](C)C(=O)O)C(C)C4)cc3)ccc2c1 (some centres unmarked) [Compound I-47]
19 |  | > 10 | > 10 | 0.0396 | CON=Cc1ccc2cc(C#Cc3ccc(N4CCN(S(=O)(=O)N[C@H](C)C(=O)O)CC4)cc3)ccc2c1 [Compound I-66, (R)-2-(4-{4-[6-(methoxyimino-methyl)-naphthalen-2-ylethynyl]-phenyl)-piperazine-1-sulfonylamino]-propionic acid]
